What was measured:
Experiment in all cases: cells
Assay type in all cases: functional, cell-based, Homo sapiens
SJRH30 = conditions: Homo sapiens, SJRH30;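 also: growth inhibition of human SJRH30 cells, read out with a cell viability assay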
Description: SANGER: Inhibition of human SJRH30 cell growth in a cell viability assay.

SW 1116 = conditions: Homo sapiens, SW 1116;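 also: growth inhibition of SW1116 cells, read out with a cell viability assay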
Description: SANGER: Inhibition of human SW1116 cell growth in a cell viability assay.

BT-549 = conditions: Homo sapiens, BT-549
Description: SANGER: Inhibition of human BT-549 cell growth in a cell viability assay.

NCI-H2170 = conditions: Homo sapiens, NCI-H2170;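 also: cell viability assay measuring growth inhibition of human NCI-H2170 cancer cells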
Description: SANGER: Inhibition of human NCI-H2170 cell growth in a cell viability assay.

NCI-H1793 = conditions: Homo sapiens, NCI-H1793;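 also: cell growth inhibition, read out by a cell viability assay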
Description: SANGER: Inhibition of human NCI-H1793 cell growth in a cell viability assay.

SAS = conditions: Homo sapiens, SAS;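 also: growth inhibition of SAS cells, read out with a cell viability assay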
Description: SANGER: Inhibition of human SAS cell growth in a cell viability assay.

KYSE-410 = conditions: Homo sapiens, KYSE-410;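 also: growth inhibition of KYSE-410 cells, measured through a cell viability readout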
Description: SANGER: Inhibition of human KYSE-410 cell growth in a cell viability assay.

LU-99A = conditions: Homo sapiens, LU-99A;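 also: growth inhibition of LU-99A cells, read out with a cell viability assay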
Description: SANGER: Inhibition of human LU-99A cell growth in a cell viability assay.

T47D = conditions: Homo sapiens, T47D;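 also: growth inhibition of human T47D cells, measured with a cell viability assay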
Description: SANGER: Inhibition of human T47D cell growth in a cell viability assay.

NB7 = conditions: Homo sapiens, NB7;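 also: growth inhibition of NB7 cells, read out with a cell viability assay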
Description: SANGER: Inhibition of human NB7 cell growth in a cell viability assay.

SK-MEL-24 = conditions: Homo sapiens, SK-MEL-24;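 also: growth inhibition read out by a cell viability assay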
Description: SANGER: Inhibition of human SK-MEL-24 cell growth in a cell viability assay.

RO82-W-1 = conditions: Homo sapiens, RO82-W-1;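 also: growth inhibition of human RO82-W-1 cells, measured with a cell viability assay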
Description: SANGER: Inhibition of human RO82-W-1 cell growth in a cell viability assay.

CAL-27 = conditions: Homo sapiens, CAL-27;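 also: Viability-based readout, IC50 reflecting inhibition of CAL-27 cell growth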
Description: SANGER: Inhibition of human CAL-27 cell growth in a cell viability assay.

Hs-578T = conditions: Homo sapiens, Hs-578T
Description: SANGER: Inhibition of human Hs-578-T cell growth in a cell viability assay.

HGC-27 = conditions: Homo sapiens, HGC-27;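 also: growth inhibition of human HGC-27 cells, read out in a cell viability assay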
Description: SANGER: Inhibition of human HGC-27 cell growth in a cell viability assay.

HLE = conditions: Homo sapiens, HLE;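 also: growth inhibition of human HLE cells, read out by a cell viability assay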
Description: SANGER: Inhibition of human HLE cell growth in a cell viability assay.

HN = conditions: Homo sapiens, HN
Description: SANGER: Inhibition of human HN cell growth in a cell viability assay.

HPAF-II = conditions: Homo sapiens, HPAF-II;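 also: growth inhibition of HPAF-II cells, read out with a cell viability assay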
Description: SANGER: Inhibition of human HPAF-II cell growth in a cell viability assay.

CAMA-1 = conditions: Homo sapiens, CAMA-1;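 also: growth inhibition of CAMA-1 cells, read out with a cell viability assay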
Description: SANGER: Inhibition of human CAMA-1 cell growth in a cell viability assay.

MKN-28 = conditions: Homo sapiens, MKN-28;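 also: cell viability assay read-out, IC50 reflects suppression of growth of human MKN-28 cells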
Description: SANGER: Inhibition of human MKN28 cell growth in a cell viability assay.

PC-3 = conditions: Homo sapiens, PC-3;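 also: cell viability assay measuring growth inhibition of PC-3 cells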
Description: SANGER: Inhibition of human PC-3 cell growth in a cell viability assay.

MOLT-13 = conditions: Homo sapiens, MOLT-13;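 also: IC50 for suppression of MOLT-13 cell growth, read out with a cell viability assay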
Description: SANGER: Inhibition of human MOLT-13 cell growth in a cell viability assay.

SW1710 = conditions: Homo sapiens, SW1710;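 also: growth inhibition of SW1710 cells, determined with a cell viability assay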
Description: SANGER: Inhibition of human SW1710 cell growth in a cell viability assay.

HCC1954 = conditions: Homo sapiens, HCC1954;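 also: growth inhibition of human HCC1954 cells, read out with a cell viability assay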
Description: SANGER: Inhibition of human HCC1954 cell growth in a cell viability assay.

P12-Ichikawa = conditions: Homo sapiens, P12-Ichikawa
HCT-15 = conditions: Homo sapiens, HCT-15;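 also: cell viability readout, IC50 reflecting suppression of HCT-15 cell growth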
Description: SANGER: Inhibition of human HCT-15 cell growth in a cell viability assay.

CHL-1 = conditions: Homo sapiens, CHL-1;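 also: cell growth inhibition, read out with a cell viability assay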
Description: SANGER: Inhibition of human CHL-1 cell growth in a cell viability assay.

KP-N-YN = conditions: Homo sapiens, KP-N-YN;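 also: growth inhibition of KP-N-YN cells, read out with a cell viability assay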
Description: SANGER: Inhibition of human KP-N-YN cell growth in a cell viability assay.

LN-405 = conditions: Homo sapiens, LN-405
Description: SANGER: Inhibition of human LN-405 cell growth in a cell viability assay.

SNU-449 = conditions: Homo sapiens, SNU-449
Description: SANGER: Inhibition of human SNU-449 cell growth in a cell viability assay.

MHH-ES-1 = conditions: Homo sapiens, MHH-ES-1;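 also: cell growth inhibition measured by a cell viability assay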
Description: SANGER: Inhibition of human MHH-ES-1 cell growth in a cell viability assay.

HOS = conditions: Homo sapiens, HOS;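 also: growth inhibition of human HOS cells, read out with a cell viability assay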
Description: SANGER: Inhibition of human HOS cell growth in a cell viability assay.

SAOS-2 = conditions: Homo sapiens, SAOS-2;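 also: growth inhibition of human Saos-2 cells determined by a cell viability assay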
Description: SANGER: Inhibition of human Saos-2 cell growth in a cell viability assay.

NCI-H1703 = conditions: Homo sapiens, NCI-H1703;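 also: growth inhibition of NCI-H1703 cells, read out via a cell viability assay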
Description: SANGER: Inhibition of human NCI-H1703 cell growth in a cell viability assay.

GP5d = conditions: Homo sapiens, GP5d;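 also: growth inhibition of human GP5d cells, read out with a cell viability assay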
Description: SANGER: Inhibition of human GP5d cell growth in a cell viability assay.

NCI-H650 = conditions: Homo sapiens, NCI-H650;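 also: growth inhibition of NCI-H650 cells, read out by a viability assay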
Description: SANGER: Inhibition of human NCI-H650 cell growth in a cell viability assay.

NB14 = conditions: Homo sapiens, NB14;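 also: growth inhibition of NB14 cells measured with a cell viability assay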
Description: SANGER: Inhibition of human NB14 cell growth in a cell viability assay.

Capan-2 = conditions: Homo sapiens, Capan-2;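 also: Capan-2 cell growth inhibition, read out with a viability assay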
Description: SANGER: Inhibition of human Capan-2 cell growth in a cell viability assay.

NCI-H2087 = conditions: Homo sapiens, NCI-H2087;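 also: growth inhibition determined with a cell viability readout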
Description: SANGER: Inhibition of human NCI-H2087 cell growth in a cell viability assay.

Structure (SMILES) | IC50 (SJRH30) [µM] | IC50 (SW 1116) [µM] | IC50 (BT-549) [µM] | IC50 (NCI-H2170) [µM] | IC50 (NCI-H1793) [nM] | IC50 (SAS) [µM] | IC50 (KYSE-410) [nM] | IC50 (LU-99A) [nM] | IC50 (T47D) [nM] | IC50 (NB7) [nM] | IC50 (SK-MEL-24) [nM] | IC50 (RO82-W-1) [µM] | IC50 (CAL-27) [µM] | IC50 (Hs-578T) [nM] | IC50 (HGC-27) [nM] | IC50 (HLE) [nM] | IC50 (HN) [nM] | IC50 (HPAF-II) [µM] | IC50 (CAMA-1) [nM] | IC50 (MKN-28) [µM] | other results
CC(C)CCN1c2nc(Nc3cc(F)c(O)c(F)c3)ncc2N(C)C(=O)C1C (configuration not stated) | > 5 | > 5 | > 5 | > 5 | > 5000 | > 5 | > 5000 | > 5000 | > 5000 | > 5000 | > 5000 | > 5 | > 5 | > 5000 | > 5000 | > 5000 | 1610 | > 5 | > 5000 | > 5 | IC50 (PC-3): 4.95 µM; IC50 (MOLT-13): 3.97 µM; IC50 (SW1710): 2310 nM; IC50 (HCC1954): 4.26 µM; IC50 (P12-Ichikawa): 2530 nM; IC50 (HCT-15): > 5 µM; IC50 (CHL-1): 1960 nM; IC50 (KP-N-YN): > 5 µM; IC50 (LN-405): > 5000 nM; IC50 (SNU-449): > 5 µM; IC50 (MHH-ES-1): 4.83 µM; IC50 (HOS): 4.46 µM; IC50 (SAOS-2): > 5 µM; IC50 (NCI-H1703): > 5000 nM; IC50 (GP5d): > 5 µM; IC50 (NCI-H650): > 5 µM; IC50 (NB14): 2110 nM; IC50 (Capan-2): > 5 µM; IC50 (NCI-H2087): > 5 µM
CO[C@H]1C[C@@H]2CC[C@@H](C)[C@@](O)(O2)C(=O)C(=O)N2CCCC[C@H]2C(=O)O[C@H]([C@H](C)C[C@@H]2CC[C@@H](OC(=O)C(C)(CO)CO)[C@H](OC)C2)CC(=O)[C@H](C)/C=C(\C)[C@@H](O)[C@@H](OC)C(=O)[C@H](C)C[C@H](C)/C=C/C=C/C=C/1C [TEMSIROLIMUS] | > 0.2 | > 0.2 | > 0.2 | > 0.2 | 45.7 | > 0.2 | 180 | 125 | 107 | 17.9 | 77 | > 0.2 | > 0.2 | 65.9 | 9.6 | 53.9 | > 200 | > 0.2 | 4.77 | > 0.2 | IC50 (PC-3): 0.00914 µM; IC50 (MOLT-13): > 0.2 µM; IC50 (SW1710): 189 nM; IC50 (HCC1954): > 0.2 µM; IC50 (P12-Ichikawa): 13 nM; IC50 (HCT-15): > 0.2 µM; IC50 (CHL-1): 5.86 nM; IC50 (KP-N-YN): > 0.2 µM; IC50 (LN-405): 135 nM; IC50 (SNU-449): > 0.2 µM; IC50 (MHH-ES-1): 0.0919 µM; IC50 (HOS): 0.145 µM; IC50 (SAOS-2): > 0.2 µM; IC50 (NCI-H1703): 23.2 nM; IC50 (GP5d): > 0.2 µM; IC50 (NCI-H650): > 0.2 µM; IC50 (NB14): 100 nM; IC50 (Capan-2): > 0.2 µM; IC50 (NCI-H2087): > 0.2 µM
Nc1cccc2c1CN(C1CCC(=O)NC1=O)C2=O (configuration not stated) [LENALIDOMIDE] | > 5 | > 5 | > 5 | > 5 | > 5000 | > 5 | > 5000 | > 5000 | > 5000 | > 5000 | > 5000 | > 5 | > 5 | > 5000 | > 5000 | > 5000 | > 5000 | > 5 | > 5000 | > 5 | IC50 (PC-3): > 5 µM; IC50 (MOLT-13): > 5 µM; IC50 (SW1710): > 5000 nM; IC50 (HCC1954): > 5 µM; IC50 (P12-Ichikawa): > 5000 nM; IC50 (HCT-15): > 5 µM; IC50 (CHL-1): > 5000 nM; IC50 (KP-N-YN): > 5 µM; IC50 (LN-405): > 5000 nM; IC50 (SNU-449): > 5 µM; IC50 (MHH-ES-1): > 5 µM; IC50 (HOS): > 5 µM; IC50 (SAOS-2): > 5 µM; IC50 (NCI-H1703): > 5000 nM; IC50 (GP5d): > 5 µM; IC50 (NCI-H650): > 5 µM; IC50 (NB14): > 5000 nM; IC50 (Capan-2): > 5 µM; IC50 (NCI-H2087): > 5 µM
